Test results taken from paper PMC10865806, “Structural insights into the molecular mechanism of high-level ceftazidime–avibactam resistance conferred by CMY-185” (mBio, 2024).

What was measured:
CMY-185 = target: T1, CMY-185 (Klebsiella pneumoniae, UniProt Q48434, A134E/N366Y/Q140K/V231S); experiment: Competitive inhibition of cephalothin hydrolysis and avibactam inhibition kinetics; type: biochemical, Escherichia coli; conditions: CMY-185; reporter substrate cephalothin 100 µM, Dixon plot; read-out: Ki app
T1 construct: all CMY-2 variant genes encoding the mature enzyme without a signal peptide were cloned into the protein expression plasmid vector pET-30b; made in house; host or cells: E. coli BL21 (DE3), pET-30b
Text: (§1) We tested the enzymes, CMY-2, two single mutants V211S (CMY-42) and N346Y, three double mutants A114E_N346Y, Q120K_N346Y, and V211S_N346Y, and the quadruplet mutant CMY-185 to elucidate the impact on the kinetic properties resulting from the four amino acid substitutions present in CMY-185 compared with CMY-2 ([8]). The steady-state kinetic parameters kcat and Km (or Ki app) for nitrocefin, cephalothin, ceftazidime, and cefiderocol and the inhibition parameters Ki app, k2/K, k−2, and koff for avibactam are summarized in Table 1. During the hydrolysis of nitrocefin, we observed the reduction of the initial velocity at concentrations above 50 µM particularly for the CMY-2 variants harboring the N346Y substitution. As this could have represented substrate inhibition, we then determined the kinetics parameters for nitrocefin using the Haldane equation ([16]). […] In addition, during the hydrolysis of cefiderocol by CMY-185, the initial velocities at a concentration range of 3.7–59.4 µM were similar.
(§2) The steady-state kinetics were carried out on a UV-Visible spectrometer (UV-1280, Shimadzu, Japan) in PBS pH 7.2 at 25°C with a constant amount of enzyme and varying concentrations of the substrates. We tested nitrocefin, cephalothin, ceftazidime, and cefiderocol as the substrates and avibactam as the inhibitor. The steady-state kinetics parameters Km and kcat were determined with the Michaelis-Menten equation. For poorly hydrolyzed substrates, the Km value was assumed to be the competitive inhibition constant (Ki app) value according to previous studies ([17], [19]). Inhibition parameter values of Ki app, k2/K, k−2, and koff for avibactam were determined using a method as described previously ([33]). Cephalothin was used as the reporter substrate for competitive inhibition experiments, and its concentration was fixed at 100 µM. The enzyme concentration was 1–10 nM. Inverse steady-state initial velocities were plotted against the concentration of the competitive inhibitor agents, such as ceftazidime, cefiderocol, and avibactam. The data were analyzed by linear regression analysis of the Dixon plot, and Ki app (observed) was determined by dividing the y-intercept value by the slope of the line. It was then corrected to account for the affinity of cephalothin for each enzyme using the Equation (1):
(§3) (1) Ki app=Ki app (observed)/{1+[S]/Km (cephalothin)}
(§4) where [S] represents the concentration of the reporter substrate cephalothin, and Km (cephalothin) is the Km value of cephalothin for each enzyme.
(§5) The koff value was determined using a jump dilution assay. The enzyme and avibactam were mixed and preincubated at 25°C for 5 min. The concentration of avibactam depended on the enzyme and concentrations 10-fold higher from each Ki app (observed) value were adopted, which were determined based on the corrected competitive inhibition constants Ki app. Preincubated enzyme-avibactam mixture was then diluted 2,000-fold in the 100 µM cephalothin solution, and the hydrolysis of cephalothin was measured. Three independent measurements were performed for each enzyme and substrate or inhibitor combination. Curve fittings using linear or non-linear regression were performed with R 4.1.3 (R Core Team, 2022).

CMY-2 = target: T2, CMY-2 (Klebsiella pneumoniae, UniProt Q48434); experiment: as above; type: biochemical, Escherichia coli
T2 construct: all CMY-2 variant genes encoding the mature enzyme without a signal peptide were cloned into the protein expression plasmid vector pET-30b; made in house; host or cells: E. coli BL21 (DE3), pET-30b
Text: as §1, §2, §3, §4, §5

[1] = target: T3, CMY-2 variant A114E_N346Y (Klebsiella pneumoniae, UniProt Q48434, A134E/N366Y); experiment: as above; type: biochemical, Escherichia coli; conditions: reporter substrate cephalothin 100 µM, Dixon plot, read-out: Ki app
T3 construct: all CMY-2 variant genes encoding the mature enzyme without a signal peptide were cloned into the protein expression plasmid vector pET-30b; made in house; host or cells: E. coli BL21 (DE3), pET-30b
Text: as §1, §2, §3, §4, §5

CMY-2 variant N346Y = target: T4, CMY-2 variant N346Y (Klebsiella pneumoniae, UniProt Q48434, N366Y); experiment: as above; type: biochemical, Escherichia coli; conditions: N346Y; reporter substrate cephalothin 100 µM, Dixon plot; read-out: Ki app
T4 construct: all CMY-2 variant genes encoding the mature enzyme without a signal peptide were cloned into the protein expression plasmid vector pET-30b; made in house; host or cells: E. coli BL21 (DE3), pET-30b
Text: as §1, §2, §3, §4, §5

[2] = target: T5, CMY-2 variant Q120K_N346Y (Klebsiella pneumoniae, UniProt Q48434, N366Y/Q140K); experiment: as above; type: biochemical, Escherichia coli; conditions: Q120K_N346Y; reporter substrate cephalothin 100 µM, Dixon plot; read-out: Ki app
T5 construct: all CMY-2 variant genes encoding the mature enzyme without a signal peptide were cloned into the protein expression plasmid vector pET-30b; made in house; host or cells: E. coli BL21 (DE3), pET-30b
Text: as §1, §2, §3, §4, §5

AmpC^Ent385 = tested on: AmpC^Ent385; set-up: method as in PMID 32284381; conditions: lowest Km reported to date; cited from earlier work
other β-lactamases = tested on: other β-lactamases; set-up: method as in PMID 30188999, PMID 27736756; conditions: cited from earlier work

## CC(C)(O/N=C(\C(=O)N[C@@H]1C(=O)N2C(C(=O)[O-])=C(C[N+]3(CCNC(=O)c4ccc(O)c(O)c4Cl)CCCC3)CS[C@H]12)c1csc(N)n1)C(=O)O [Cefiderocol, cefiderocol]
CMY-185
  Ki: 200 nM
CMY-2; cefiderocol compared with ceftazidime
  fold higher Ki app: 10 fold
CMY-2; reporter substrate cephalothin 100 µM, Dixon plot, read-out: Ki app
  Ki: 8000 ± 1300 nM
[1]
  Ki: 400 nM
CMY-2 variant N346Y
  Ki: 700 nM
[2]
  Ki: 400 nM
AmpC^Ent385
  Km: 49.8 µM
Other β-lactamases
  Km: > 190 µM
